Our source for the IC50, LD50 and GI50 values is ChEMBL document CHEMBL4613209, “Quinolone hybrids and their anti-cancer activities: An overview” (Eur J Med Chem, 2019).

Converted amounts (≈) assume the structure as drawn. Some results are limits rather than exact numbers.

The subject of one series is PANC-1. The series can be described thus: Antiproliferative activity against human PANC1 cells after 48 hrs by MTT assay. The format is functional, cell-based. The following applies: PANC-1, 48 h. (Tetrazolium dyes change colour on reduction, which living cells bring about.)
The subject of series [1] is HCT-116. Description: Antiproliferative activity against human HCT116 cells after 48 hrs by MTT assay. The format is functional, cell-based. The following applies: HCT-116, 48 h.
In series [2] the test system is HeLa. Description: Antiproliferative activity against human HeLa cells after 48 hrs by MTT assay. The format is functional, cell-based.
Series [3] concerns A549. Description: Antiproliferative activity against human A549 cells after 48 hrs by MTT assay. The format is functional, cell-based. The following applies: A549, 48 h.
Series [4] in a line: Toxicity in mouse xenografted with human CX-1 cells. The following applies: in vivo. On the technique in general: In xenograft studies the graft and the host belong to different species.
Series [5] is described as follows: Toxicity in mouse xenografted with human MB-9812 cells.
Series [6] concerns A549. Description: Antiproliferative activity against human A549 cells by CCK8 assay. The format is functional, cell-based.
For series [7], the system named is HepG2. The series can be described thus: Antiproliferative activity against human HepG2 cells by CCK8 assay. The format is functional, cell-based.
The test system of series [8] is MCF7. Description: Antiproliferative activity against human MCF7 cells by CCK8 assay. It counts as functional, cell-based.
Series [9] concerns PC-3. Description: Antiproliferative activity against human PC3 cells by CCK8 assay. It counts as functional, cell-based.
Series [10] concerns HeLa. Description: Antiproliferative activity against human HeLa cells by CCK8 assay. It counts as functional, cell-based.
A further series has as its system MCF-10A. The series can be described thus: Antiproliferative activity against human MCF10A cells by CCK8 assay. The format is cell-based.
The target in another series is Histone deacetylase. Description: Inhibition of HDAC (unknown origin). It counts as protein assay, Homo sapiens.
In the next series the target is Tubulin. Description: Inhibition of tubulin polymerization (unknown origin). It counts as protein-complex assay, Homo sapiens.
Another series has as its system K562. The series can be described thus: Anticancer activity against human K562 cells. It counts as functional, cell-based.
For the next series, the system named is HT-1080. Description: Cytotoxicity against human HT1080 cells assessed as reduction in cell viability. The format is functional, cell-based.
Series [11] relates to HepG2. The series can be described thus: Anticancer activity against human HepG2 cells by MTT assay. The format is functional, cell-based.
A further series deals with HT-29. Description: Anticancer activity against human HT-29 cells by MTT assay. The format is functional, cell-based.
A further series has as its system HL-60. The series can be described thus: Anticancer activity against human HL60 cells by MTT assay. The format is functional, cell-based.
The test system of series [12] is A549. The series can be described thus: Anticancer activity against human A549 cells by MTT assay. It counts as functional, cell-based.
The subject of series [13] is HeLa. Description: Anticancer activity against human HeLa cells by MTT assay. The format is functional, cell-based.
The subject of series [14] is MCF7. Description: Cytotoxicity against human MCF7 cells assessed as reduction in cell viability by SRB assay. The format is functional, cell-based. (In general: In SRB staining, fixed cells bind dye roughly in proportion to their protein.)
Series [15] has as its system HCT-116. Description: Cytotoxicity against human HCT116 cells assessed as reduction in cell viability by SRB assay. It counts as functional, cell-based.
The next series relates to SiHa. Description: Growth inhibition of human SiHa cells after 48 hrs by SRB assay. The format is functional.
A further series concerns MDA-MB-231. The series can be described thus: Growth inhibition of human MDA-MB-231 cells after 48 hrs by SRB assay. It counts as functional. The following applies: MDA-MB-231, 48 h.
Series [16] deals with PC-3. Description: Cytotoxicity against human PC3 cells assessed as reduction in cell viability after 48 hrs by SRB assay. The format is functional, cell-based. The following applies: PC-3, 48 h.
A further series deals with DU-145. Description: Cytotoxicity against human DU145 cells assessed as reduction in cell viability after 48 hrs by SRB assay. The format is functional, cell-based. The following applies: DU-145, 48 h.
Another series relates to HCT-8. Description: Antiproliferative activity against human HCT8 cells after 48 hrs by MTT assay. Particulars: HCT-8, 48 h. It counts as functional, cell-based.

For orientation: IC50 means the midpoint of a concentration-inhibition curve. For `CCN(CC)Cc1cn(-c2cc3c(cc2F)c(=O)c(C(=O)NO)cn3C2CC2)nn1`, the IC50 with PANC-1, in the series on HCT-116 [1], in the series with HeLa [2] and in the series on A549 [3] was above 10 µM in each case.
As a reminder, the LD50 is the dose at which mortality reaches 50%. Low readings indicate greater toxicity, high ones lower toxicity. With `CN(Cc1cnc2nc(N)nc(N)c2n1)c1ccc(C(=O)N[C@@H](CCC(=O)O)C(=O)O)cc1` [METHOTREXATE], the LD50 in [4] and in [5] was 5 mg/kg each time.
As to `C[C@H]1COc2c(N3CCN(C)CC3)c(F)cc3c(=O)c(C(=O)NCc4cn(CCCCCCC(=O)NO)nn4)cn1c23`, the IC50 is 0.3 to 4.9 µM in the series on A549 [6]; 0.3 to 4.9 µM in the series on HepG2 [7]; 0.3 to 4.9 µM with MCF7 [8]; 0.3 to 4.9 µM in the series with PC-3 [9]; 0.3 to 4.9 µM in the series on HeLa [10]; above 100 µM in the series with MCF-10A. For the same compound, the figures for the IC50 against Histone deacetylase and at Tubulin were 0.021 to 0.85 µM and 1.79 to 6.36 µM, respectively.
With `NC(=O)c1cn([C@@H]2O[C@H](CO)[C@@H](O)[C@H]2O)c2ccc(Nc3ccccc3)cc2c1=O`, in the series on K562, inhibition was half-maximal at 64.1 µM (IC50).
Take `O=C(NO)c1cn(C2CC2)c2cc(-n3cc(CN4CCOCC4)nn3)c(F)cc2c1=O`: the IC50 with PANC-1, with HCT-116 [1], in the series with HeLa [2] and with A549 [3] was above 10 µM throughout.
In the case of `Cc1cc2c(n1-c1ccccc1)CCc1cc(S(=O)(=O)c3ccccc3)c(O)nc1-2`, the IC50 with HT-1080 was in the range of 0.4 to 3.6 µM.
Consider `CCOC(=O)c1cn(Cc2cn(-c3ccc(Cl)cc3)nn2)c2ccc(F)cc2c1=O`, for which the IC50 in the series on HepG2 [11], in the series with HT-29, with HL-60, with A549 [12] and in the series with HeLa [13] was 13.1 to 70.2 µM throughout.
Consider `CCOC(=O)c1cn([C@@H]2O[C@H](CO)[C@@H](O)[C@H]2O)c2ccc(Nc3ccccc3)cc2c1=O`, for which the IC50 in the series on K562 lay in the range of 64.1 to 198 µM.
For the compound `N#Cc1c(N)c2cc(-c3nc4ccccc4s3)ccc2[nH]c1=O`, the IC50 was determined as 0.0748 µM in the series with MCF7 [14] and 0.0616 µM with HCT-116 [15].
One may read the GI50 as the concentration that inhibits growth by half. Regarding `CCn1cc(C(=O)O)c(=O)c2cnc(N3CCN(C(=O)CCSc4nnnn4-c4ccc(F)c(F)c4F)CC3)nc21`, the GI50 in the series on SiHa and in the series with MDA-MB-231 was at most 0.1 µM in each case.
Consider `Cn1c(=O)cc(Cc2nnc3n2N=C(c2cc4ccccc4oc2=O)CS3)c2ccccc21`, for which the values for the IC50 with PC-3 [16] and in the series with DU-145 were 43.3 µg/mL (≈ 95.1 µM) and 20.4 µg/mL (≈ 44.8 µM), respectively.
In the case of `C[C@H]1COc2c(N3CCN(C)CC3)c(F)cc3c(=O)c(C(=O)OCc4cn(CCCCCCC(=O)NO)nn4)cn1c23`, the IC50 with A549 [6] was 0.3 to 12.8 µM; in the series with HepG2 [7] it was 0.3 to 12.8 µM; with MCF7 [8] it was 0.3 to 12.8 µM; in the series on PC-3 [9], 0.3 to 12.8 µM; in the series with HeLa [10], 0.3 to 12.8 µM; in the series with MCF-10A, above 100 µM. Also, the IC50 fell in the range of 0.021 to 0.85 µM against Histone deacetylase and 1.79 to 6.36 µM against Tubulin.
On to `CN(C)Cc1cn(-c2cc3c(cc2F)c(=O)c(C(=O)NO)cn3C2CC2)nn1`, for which the IC50 in the series on PANC-1, in the series on HCT-116 [1], in the series with HeLa [2] and in the series with A549 [3] was above 10 µM each time.
For `O=C(O)c1cn(C2CC2)c2cc(N3CCN(C(=O)CCSc4nnnn4-c4ccc(Br)cc4)CC3)c(F)cc2c1=O`, the GI50 in the series on SiHa and in the series on MDA-MB-231 was at most 0.1 µM throughout.
Take `COc1ccc(C2CC(c3c(-c4ccccc4)c4ccccc4[nH]c3=O)=NN2c2ccccc2)cc1` (stereo not drawn): the values for the IC50 in the series on HCT-116 [1], with HeLa [2] and in the series on HCT-8 were 2.2 µM, 2.4 µM and 5.6 µM, respectively.
With `CC(C)NCc1cn(-c2cc3c(cc2F)c(=O)c(C(=O)NO)cn3C2CC2)nn1`, the IC50 with PANC-1, with HCT-116 [1], in the series with HeLa [2] and in the series on A549 [3] was above 10 µM throughout.
